From a melting point compilation (Tetko et al.; mined from patent text by program, amines drawn as free bases though some values may be those of a salt) come the findings set out here.

Structures are written as SMILES. Where only a bound is given, the exact number is not on record here.

What is called melting point is the temperature of the solid-liquid transition. As to `CC(C)(C)OC(=O)N1CCC(O)(CS)CC1`, the melting point was 54 to 55 °C. As for `NS(=O)(=O)c1ccc(-n2nc(C(F)(F)F)c(Cl)c2-c2ccc(Cl)cc2)cc1`, the figure is 180 to 182 °C; as for `Nc1c(Cl)cc(C(O)CNCCCCCCOCCSCCc2ccccn2)cc1Cl` (configuration not stated), 59.5 to 62 °C; as for `COc1cccc2c1nc(C(F)F)n2-c1nc(N2CCOCC2)cc(N2C[C@@H](C)O[C@@H](C)C2)n1`, 132 to 134 °C. The molecule `COc1cccc2c(=O)c3c(OCC4CS4)cc(OCC4CS4)cc3oc12` (configuration not stated) yielded a melting point of 240 °C.

As for `CCOc1ccc2c(c1)CCN(C(=O)OCc1ccccc1)C21CCC(C(=O)O)(C(=O)O)CC1`, the melting point fell in the range of 184 to 185 °C. In turn, `Cc1cc(C(=O)NCO)ncc1C(c1c(F)ccc(F)c1F)S(=O)(=O)CCC(F)(F)C(F)(F)F` (configuration not stated) came in with a melting point of 126 to 128 °C.

As for `CNc1cc(N)c(C(=O)O)cc1[N+](=O)[O-]`, the melting point lay within 260 to 272 °C. Molecule `CCC(=O)Nc1cccc2c1C(=O)c1cccc(NC(=O)CC)c1C2=O` came in with a melting point of 321 °C. As for `CCc1cccc(N(C(=O)CCC(=O)O)c2cc(C(C)(C)C)c(O)c(C(C)(C)C)c2)c1`, the melting point was 150 to 152 °C. As for `COCc1cnc2c(NC(=O)c3ccccc3[N+](=O)[O-])cccc2c1N1CCN(C)C1=O`, the figure is 156 to 159 °C; as for `CCOC(=O)c1ccc(/C=C(\C)C=O)s1`, 98 °C.

The molecule `COc1ccc2c(c1)C(=O)N(c1ccc3cnn(C)c3c1)C2` showed a melting point of 175 to 177 °C. For the molecule `CCOC(=O)C(C)Oc1ccc([N+](=O)[O-])cc1` (configuration not stated), the melting point is 55 to 56 °C. As for `COc1ccc2c(c1)C(=O)c1sc(-c3ccccc3)nc1C2=O`, the figure is greater than 260 °C; as for `CCN1N=C(c2ccc(OC)c(OC)c2)[C@@H]2CCCC[C@@H]2C1=O` (relative stereo), 105 to 106 °C; as for `CC(C)CCCC(C)C1CCC2C3CC=C4CC(OC(=O)C(C)O)CCC4(C)C3CCC12C` (configuration not stated), 120 to 122 °C. As for `Cc1c(Cl)cccc1NCc1ccccc1Cl`, the figure is 63 to 66 °C; as for `COc1cccc([C@H]2O[C@H](CC(=O)Nc3cc(C(=O)O)ccc3C)C(=O)N(CC(C)(C)CO)c3ccc(Cl)cc32)c1OC`, 172 to 173 °C; as for `COc1ccc2c(C(=S)N(C)CC(=O)N(C)C)cccc2c1C(F)(F)F`, 172 to 175 °C. As for `O=C(O)C1=Cc2cc(Cl)c(Sc3ccccc3)cc2OC1C(F)(F)F` (configuration not stated), the figure is 272 to 274 °C. With `CCOc1ccccc1C(=O)Nc1ccc(C(=O)N2CCC(F)(F)/C(=C\C(=O)N3CCOCC3)c3ccccc32)cc1`, the melting point is 144 to 147 °C.

Take `CC1(C)CC(=O)Nc2cc3nc(O)[nH]c3cc21`: the melting point is greater than 300 °C. Molecule `COc1ccc(OCC(O)CN2CCC3(CC2)CNC(=O)O3)cc1` (configuration not stated) returned a melting point of 151 to 153 °C. Under `O=C(Nc1ccc(Cl)cn1)c1cc(Cl)ccc1NCC1CCN(C2CCSC2)CC1` (configuration not stated) stands 178 to 181 °C; under `CCc1cccc(CC(=O)O)c1OCCn1cc(CCOc2ncc(C(F)(F)F)cc2Cl)c(OC(C)C)n1`, 76.5 to 77.5 °C. Under `CC(C)(C)n1ncc(C(N)=O)c1N` stands 193 to 195 °C; under `CC(ON1C(C)(C)CC2(CC1(C)C)OCC(C)(C)CO2)c1ccc(O)cc1` (configuration not stated), 133 to 134 °C; under `COc1ccc(-n2cccc2-c2ccc(S(N)(=O)=O)cc2)cc1`, 112 to 114 °C. As for `COC(=O)c1c(O)cc(OCC(=O)c2ccc3c(c2)C(C)(C)CCC3(C)C)cc1O`, the figure is 162 to 163 °C. In the case of `CCOC(=O)c1cc2ccc(C)c(NS(=O)(=O)c3cccs3)c2[nH]1`, the melting point fell in the range of 184 to 185 °C. The molecule `CC(=O)NCc1nc(-c2ccccc2)c(-c2ccccc2)o1` gave a melting point of 58 to 60 °C.

`O=[N+]([O-])c1ccc2c(c1)CCN(Cc1ccccc1)C2`: the melting point is 76 to 78 °C. Molecule `O=C(C=Cc1cc(O)c(O)cc1O)OCCc1ccccc1` returned a melting point of 146 to 149 °C.

Consider `Cc1ccccc1Cc1ccc(C(=O)O)o1`, for which the melting point lay in the range of 136 to 138 °C. As for `COc1ccccc1NC(=O)c1ccccc1CN1C(=O)C2(COc3cc4c(cc32)CCO4)c2ccccc21` (configuration not stated), the figure is 172 to 174 °C; as for `O=C(O)c1cc(-n2c(-c3ccc(Cl)c(Cl)c3)cc3c2CCCC3)ccc1O`, 210 to 211 °C; as for `NC(=O)Cc1ccc2noc(-c3ccc(Cl)cc3)c2c1`, 242 to 244 °C. In turn, `Cc1cc2c(cc1Cl)N(C(=O)CN1CCN(c3ncccn3)CC1)c1ccccc1N(C)S2(=O)=O` gave a melting point of 180 to 182 °C. Under `CCCCCCCCCCCCS(=O)(=O)NN(C(=O)c1ccccc1)c1cc(Cl)c(C)cc1O` stands 124 to 125 °C; under `CC(=O)Cc1ccc(CC2SC(=N)NC2=O)cc1` (configuration not stated), 196 to 198 °C; under `C#CCNC(=O)Oc1cccc2c1OC(C)(C)O2`, 107 to 109 °C. As for `COc1ccc2ncc3c(=O)n(-c4ccccc4)oc3c2c1`, the figure is 140 °C; as for `CS(=O)(=O)c1ccccc1S(=O)(=O)Nc1cccc2cc(C3=NCCS3)[nH]c12`, 211 to 212 °C. As for `O=C(C1CN(S(=O)(=O)c2ccc3cc(Br)ccc3c2)CCN1C(=O)C1CCN(c2ccncc2)CC1)N1CCOCC1` (configuration not stated), the figure is 235 to 237 °C; as for `CC(C)(C)c1ccc(CNC(=O)NCc2ccc(NS(C)(=O)=O)c(Cl)c2)cc1`, 60 to 61 °C. `CC(=O)OCCN1CSC(=Cc2cc(C(C)(C)C)c(O)c(C(C)(C)C)c2)C1=O` gave a melting point of 152 to 155 °C.

For `Cn1c(CC#N)ccc1C(=O)c1cccs1`, the melting point lay within 132 to 133 °C. For `COc1ccccc1N1CCN(CCCn2c(=O)[nH]c3sccc3c2=O)CC1`, the melting point was in the range of 217 to 218 °C. The molecule `C=CCN1C(=O)NC(C)=C(C(=O)OC(C)C)C1c1cccc([N+](=O)[O-])c1` (configuration not stated) gave a melting point of 172 to 174 °C. `COC(=O)C(C)(N)Cc1c[nH]c2ccc(Br)cc12` (racemic) gave a melting point of 181 °C.

With `CCCCCCCCCCOC(=O)c1nc(-c2ccc(Cl)cc2)c(F)c(N)c1Cl`, the melting point was in the range of 62 to 63 °C. Molecule `CN(Cc1cc(C(F)(F)F)cc(C(F)(F)F)c1)C(=O)c1nc(O)ncc1-c1ccccc1` displayed a melting point of 218 to 220 °C. As for `N#Cc1ccc(COc2ccc(CC(NC(=O)c3cn4ccc(-c5ccc(Cl)cc5)cc4n3)C(=O)O)cc2)cc1` (configuration not stated), the figure is 263 °C; as for `Nc1ncnc2nc(-c3cccc(Cl)c3)cnc12`, 260 to 264 °C. Under `O=Cc1ccc2oc3ncccc3c(=O)c2c1` stands 233 to 235 °C; under `CCOC(=O)Cc1nc(-c2ccc(Cl)cc2)oc1-c1ccoc1`, 124 to 125 °C; under `COC1(c2cc(F)cc(OCc3ccc4ccccc4c3)c2)CCOCC1`, 109 to 111 °C.

`N#Cc1cc2ccc(Cl)cc2[nH]c1=O`: the melting point is 306 to 309 °C.

`CCOc1cc(C(O)c2ccccn2)ccc1OCc1ccccc1` (configuration not stated) had a melting point of 109 to 110 °C. Molecule `Nc1c([N+](=O)[O-])cnc2sccc12` displayed a melting point of 227 to 228 °C.

On to `CCCc1ccc2c(C(=O)O)ccc(OC)c2n1`, for which the melting point lay within 214 to 217 °C. Consider `CNC(=O)CC=C(CC(C)C)C(=O)O`, for which the melting point lay within 120 to 122 °C.

For `C[C@@H]1CNC(=O)c2cc3ccc(C(F)(F)F)cc3n21`, the melting point was 201 to 204 °C. `CCNC(=NC#N)NCCSCc1csc(NC(=N)N)n1` had a melting point of 181 to 182 °C. Molecule `CCOC(=O)c1cnc2cc(OC)c(OC)cc2c1Nc1cccc(Br)c1` came in with a melting point of 155 to 158 °C. The molecule `Fc1cccc(F)c1COc1cccnc1NC(=S)Nc1ccccc1` had a melting point of 132 to 133 °C. As for `CC(O)(CCBr)C1CCCCC1` (configuration not stated), the figure is 31 to 33 °C; as for `Nc1ccc2[nH]c3cc(-c4ccccc4Cl)c4c(c3c2c1)C(=O)NC4=O`, 216 to 222 °C; as for `CC(C)(C)c1cc2c(c(C(=O)Nc3ccc(S(=O)(=O)C(F)(F)F)cc3Cl)c1O)CCC2`, 172 to 173 °C. Under `COc1ccc(F)cc1C(C)(C)CC(O)(Cc1cc(C)cc(C)n1)C(F)(F)F` (configuration not stated) stands 95 to 98 °C; under `O=Cc1c(-c2cccc(C(F)(F)F)c2)sc2ccccc12`, 103 to 104 °C. In turn, `CCc1ccccc1Cn1cc(-c2cn(C3CC(O)C(CO)O3)c(=O)[nH]c2=O)nn1` (configuration not stated) displayed a melting point of 169 to 172 °C. Regarding `Cc1cc(SCc2ccc(OCc3ccc(C(F)(F)F)cc3)cc2)c(Cl)cc1OCC(=O)O`, the melting point was 142 to 143 °C.

`O=C(O)C1CC(O)CN1C(=O)c1ccc2c(c1)OCCO2` (configuration not stated) gave a melting point of 142 °C.

Consider `CCCCNC(=O)COc1ccn2nc(-c3ccccc3)c(-c3ccc(=O)n(C(C)C)n3)c2c1`, for which the melting point lay within 151 to 152 °C. With `CC1CCN(c2c(-c3ccc(F)cc3Cl)c(C#N)nc3ncnn23)CC1`, the melting point is 247 °C. Consider `CC(C)c1nn(-c2ccc(C(F)(F)F)cn2)cc1CCCOc1ccccc1CC(=O)O`, for which the melting point lay in the range of 132 to 133 °C. As for `O=C1NC(=O)C(Nc2ccc(CCNCC(O)COc3ccc(OCc4ccccc4)cc3)cc2)S1` (configuration not stated), the figure is 152 °C. `O=C(C=Cc1cccc(S(=O)(=O)NCc2cccnc2)c1)NO`: the melting point is 191 °C. Under `COc1cc2c(C3=CCN(C[C@H](O)COc4cccc5[nH]ccc45)CC3)c[nH]c2cc1Cl` stands 115 to 120 °C; under `CCCCOc1ccc(C(=O)N[C@@H]2CCc3cccc(C4CCN(C)CC4)c3C2)cc1`, 162 to 164 °C; under `COCCCOc1cc(C[C@@H](C[C@H](N)[C@@H](O)C[C@H](C(=O)NCC(C)(C)C(N)=O)C(C)C)C(C)C)ccc1OC`, 95 to 104 °C. The molecule `CSC1(C)C(=O)Nc2c(C(=O)c3ccccc3)cccc21` (configuration not stated) showed a melting point of 135 to 137 °C. Under `CCNc1nc2cc(COc3cccc(C=O)c3)ccc2o1` stands 85 to 90 °C; under `Cc1nc2c3c(c(C(=O)N4CCC4)cc2n1C)CCC(c1ccccc1)O3` (configuration not stated), 241 to 242 °C. On to `Nc1nc(N)c(N)c(OCc2ccccc2)n1`, for which the melting point lay within 130 to 135 °C.
